What all share (assay type): functional
One test deals with Bacteroides fragilis. In words: In vitro minimum inhibitory concentration against Bacteroides fragilis (ATCC 25285).
The next test concerns Enterococcus faecalis. In words: In vitro minimum inhibitory concentration against Streptococcus faecalis (ATCC 29212).
For test [1], the system named is Mus musculus. Briefly: In vivo antibacterial activity against Escherichia coli (Vogel) in mice administered perorally. The conditions noted are these: po, read-out: PD50.
Another test has as its system Streptococcus pneumoniae. Briefly: In vitro minimum inhibitory concentration against Streptococcus pneumoniae (ATCC 6301).
The test system of the next test is Escherichia coli. In words: In vitro minimum inhibitory concentration against Escherichia coli (ATCC […]25922).
For a further test, the system named is Staphylococcus aureus. Briefly: In vitro minimum inhibitory concentration against Staphylococcus aureus (ATCC 29213).
For test [2], the system named is Mus musculus. In words: In vivo antibacterial activity against Escherichia coli (Vogel) in mice administered subcutaneously. The conditions noted are these: sc, read-out: PD50.
Another test deals with Pseudomonas aeruginosa. In words: In vitro minimum inhibitory concentration against Pseudomonas aeruginosa (ATCC 27853).

For four compounds, MIC and ED50 results are on record in ChEMBL document CHEMBL1124193, “Synthesis and bacterial DNA gyrase inhibitory properties of a spirocyclopropylquinolone derivative” (J Med Chem, 1988).

≈ marks a conversion by molar mass, not a printed value.

Broadly, the MIC is the smallest concentration in the dilution series that meets the test's criterion for growth inhibition. Low values mean inhibition by little substance, high ones a need for much substance.

In the case of `CN1CCN(c2c(F)cc3c(=O)c(C(=O)O)cn4c3c2OCC42CC2)CC1`, the MIC was 8 µg/mL (≈ 21.4 µM) in the test on Bacteroides fragilis; 8 µg/mL (≈ 21.4 µM) in the test with Enterococcus faecalis; 8 µg/mL (≈ 21.4 µM) against Streptococcus pneumoniae; 0.125 µg/mL (≈ 0.335 µM) with Escherichia coli; 2 µg/mL (≈ 5.36 µM) against Staphylococcus aureus; 4 µg/mL (≈ 10.7 µM) in the test on Pseudomonas aeruginosa. Besides, the ED50 is 6.3 mg/kg in the test with Mus musculus [1] and 1.9 mg/kg in the test with Mus musculus [2].
Take `O=C(O)c1cn(C2CC2)c2cc(N3CCNCC3)c(F)cc2c1=O` [CIPROFLOXACIN]: the MIC against Bacteroides fragilis came to 2 µg/mL (≈ 6.04 µM); in the test with Enterococcus faecalis, 0.5 µg/mL (≈ 1.51 µM); against Streptococcus pneumoniae, 0.25 µg/mL (≈ 0.754 µM); against Staphylococcus aureus, 0.25 µg/mL (≈ 0.754 µM). Besides, the ED50 with Mus musculus [1] stood at 0.86 mg/kg; in the test with Mus musculus [2], 0.2 mg/kg.
Turning to `C[C@H]1COc2c(N3CCN(C)CC3)c(F)cc3c(=O)c(C(=O)O)cn1c23.C[C@H]1COc2c(N3CCN(C)CC3)c(F)cc3c(=O)c(C(=O)O)cn1c23.O` [LEVOFLOXACIN], the MIC against Bacteroides fragilis amounted to 16 µg/mL; in the test on Enterococcus faecalis, 16 µg/mL; in the test with Staphylococcus aureus it was 2 µg/mL; with Pseudomonas aeruginosa, 32 µg/mL. Further, the ED50 in the test on Mus musculus [1] is 10.1 mg/kg; with Mus musculus [2], 3.8 mg/kg.
With `CC1COc2c(N3CCN(C)CC3)c(F)cc3c(=O)c(C(=O)O)cn1c23` (stereo unspecified) [OFLOXACIN], the MIC with Bacteroides fragilis amounted to 0.5 µg/mL (≈ 1.38 µM); in the test with Enterococcus faecalis, 2 µg/mL (≈ 5.53 µM); in the test on Staphylococcus aureus it was 0.25 µg/mL (≈ 0.692 µM); against Pseudomonas aeruginosa, 0.5 µg/mL (≈ 1.38 µM). Further, the ED50 is 2.2 mg/kg in the test with Mus musculus [1] and 1.2 mg/kg in the test on Mus musculus [2].
